Source: publication PMC5487681, “Identification of Antifungal H^+-ATPase Inhibitors with Effect on Plasma Membrane Potential” (Antimicrobial Agents and Chemotherapy, 2017)
Read-outs that look alike come from different tables or passages of the source. Residues, ends and D or L forms follow the SMILES beside them.

Key:
[1] = biological target: T1, C. albicans Pma1 (Candida albicans, UniProt P28877); test: ATP hydrolysis assay, C. albicans Pma1; format: biochemical
T1 construct: endogenous in cells
Description: A 100-ml overnight culture in YPD medium [10 g/liter yeast extract (BD, Sparks, MD), 20 g/liter Bacto peptone (BD), 20 g/liter D-(+)-glucose] was transferred to 1 liter YPD medium and grown at room temperature and 150 rpm for 18 h for wild-type S. cerevisiae (ATCC 9763) and 7 h for C. albicans. The cells were harvested and washed in Milli-Q H2O by centrifugation at 3,360 × g. The cells were glucose activated by the addition of 10% D-(+)-glucose for 10 min while shaking. The cells were then centrifuged at 3,360 × g for 3 min and frozen. Cells (60 to 80 g, wet weight) were then disrupted by bead beating (BioSpec, Bartlesville, OK) and processed as described in reference to prepare the plasma membranes. […] All batches were validated by ATPase hydrolysis activity, pH optimum, and orthovanadate sensitivity.
The protein activity levels were determined by measuring the amount of free phosphate produced from the ATP hydrolysis reaction. The assay was performed as described in reference. Each well contained ATPase enzyme, 2 μl of inhibitor (usually in the range of 333 to 0.01 μM) dissolved in dimethyl sulfoxide (DMSO) (Duchefa Biochemie, Haarlem, The Netherlands), and an assay buffer dependent on the enzyme for a final volume of 60 μl. Possible compound precipitation in the assay buffer was monitored using a Nephelostar plate reader measuring turbidity, and the information was taken into account in the IC50 determination. Pma1 assay buffer consisted of 20 mM 3-(N-morpholino)propanesulfonic acid (MOPS)–NaOH, pH 6.5 or 7.0, 8 mM MgSO4, 50 mM KNO3 (a vacuolar ATPase inhibitor), 25 mM sodium azide (a mitochondrial ATPase inhibitor), and 250 μM sodium molybdate (an acid phosphatase inhibitor). SERCA buffer consisted of 9 mM MOPS-NaOH, pH 7, 2.7 mM MgCl2, 90 μM CaCl2, and 72 mM KCl. Na^+,K^+-ATPase buffer consisted of 30 mM MOPS-NaOH, pH 7, 40 mM NaCl, 4 mM MgCl2, and 20 mM KCl. The concentration of protein was adjusted to obtain a signal of the optical density at 860 nm (OD860) of between 0.5 and 1.0 in the untreated samples (for all Pma1 batches, ∼1 to 2 μg/well; for SERCA and Na^+,K^+-ATPase, ∼0.1 to 0.2 μg/well). BM2 ([…]-NH2, D-form amino acids) was custom synthesized by Peptide 2.0 (Chantilly, VA).

[2] = test system: Hep-G2 cells; test: cells; format: cell-based, human
Description: In a tissue culture-treated 96-well plate (catalog number 655180; Grenier), 10,000 human hepatocyte Hep-G2 cells (catalog number 85011430; Sigma-Aldrich) were plated in 200 μl growth medium (Eagle minimal essential medium; catalog number M2279; Sigma-Aldrich), 2 mM L-glutamine (catalog number 03-020-1B; Biological Industries), 1% nonessential amino acids (catalog number XC-E1154/100; Biosera), 10% fetal bovine serum (catalog number BI-04-007-1A; Biological Industries) and incubated overnight at 37°C in 5% CO2. On the next day, fresh growth medium plus 2 μl compound in DMSO was added. The plate was incubated for a further 24 h at 37°C in 5% CO2. The medium was replaced with 100 μl freshly prepared 0.5 mg/ml 2,3-bis(2-methoxy-4-nitro-5-sulfophenyl)-5-[(phenylamino)carbonyl]-2H-tetrazolium hydroxide, sodium salt, solution (catalog number X4251; Sigma-Aldrich) in RPMI 1640 medium (catalog number R7509; Sigma-Aldrich) with 3.83 μg/ml phenazine methosulfate (catalog number P9625; Sigma-Aldrich) and incubated for 2 to 3 h at 37°C in 5% CO2. The color reaction was measured on a Victor X5 plate reader (PerkinElmer) by determination of the OD450 and the half-maximal (50%) effective concentration (EC50) was calculated.

[3] = Compound precipitation in the fungal growth medium; format: physicochemical; conditions: fungal growth medium (RPMI), footnotes of Table 1
Description: The following fungal isolates were used: Saccharomyces cerevisiae ATCC 9763, Candida albicans SC5314, Candida parapsilosis ATCC 22019, Candida tropicalis Ct016, Candida glabrata ATCC 90030, Aspergillus fumigatus ATCC 13073, and Aspergillus flavus ATCC MYA-1005. Frozen stocks of yeast isolates in glycerol (final concentration, 20%) were prepared by growing the cells to log phase in YPD medium at 30°C and 150 rpm. Frozen stocks of mold spores were prepared by harvesting spores from 7-day-old potato glucose agar plates in phosphate-buffered saline, 0.1% Tween 80 and aliquoting these spores in the presence of glycerol (final concentration, 20%). The cells were stored at −80°C. The cells or spores were thawed and diluted to a final concentration of 0.5 × 10^5 to 2.5 × 10^5 CFU/ml in sterile Milli-Q H2O. […] The plate was incubated for 20 to 24 h at 34°C (72 h for molds), and the OD490 was measured on a Victor X5 (PerkinElmer) plate reader. Mold growth assay plates were also visually inspected. The MIC was defined as the lowest concentration inhibiting the visual growth of the microorganism. Standard errors were typically below 5%.

[4] = biological target: Ca^2+-ATPase (SERCA1a) (Oryctolagus cuniculus, UniProt P04191); test: ATP hydrolysis assay, SERCA; format: biochemical, rabbit; conditions: Table 1
[5] = test system: S. cerevisiae cells; test: Intracellular ATP (iATP), S. cerevisiae; format: cell-based, Saccharomyces cerevisiae; conditions: for Effects on iATP levels, in words: S. cerevisiae and C. albicans (Fig. 5A, B), compared to compounds 14, 19 and BM2
Description: (§1) S. cerevisiae and C. albicans cells were grown and washed as described above for the membrane potential and integrity assay and resuspended in SG medium (0.7% yeast nitrogen base without amino acids [BD], 50 mM succinic acid adjusted to pH 7 with Trizma base) to OD600 of 0.2 and 0.1, respectively. One hundred microliters of an S. cerevisiae or C. albicans cell suspension and 1 μl compound in DMSO were incubated for 30 min. Twenty-five microliters of the suspension was then transferred to a black 96-well plate containing 25 μl BacTiter-Glo reagent (Promega, Madison, WI) and incubated for 15 min in the dark. The luminescence was read on SpectraMax X5 (Molecular Devices, Sunnyvale, CA) plate reader with a 10 s of shaking and a 0.5 s integration time. Standard curves at 10, 100, and 1,000 nM ATP were performed with every experiment.

[6] = test system: C. albicans cells; test: Intracellular ATP (iATP), C. albicans; format: cell-based, Candida albicans; conditions: for EC50: Candida albicans, 0.5 h, 30 min, dose response (Fig. 5C), read-out: EC50 of the increase in iATP levels, C. albicans; for Maximum iATP level (per well), C. albicans: highest concentrations of inhibitors tested (Fig. 5C)
Description: as §1

[7] = Table 2, pH 7, n = 2, read-out: IC50 for ATP hydrolysis, C. albicans Pma1
[8] = read-out: IC50 for the Pma1 enzyme from C. albicans
[9] = ATP hydrolysis at pH 7.4 (compounds marked b)
[10] = Homo sapiens, HepG2, 24 h, medium with 10% fetal bovine serum, XTT readout, read-out: EC50 for Hep-G2 cells at 24 h

Sequence of Ca^2+-ATPase (SERCA1a) (P04191 1-994 isoform P04191-2): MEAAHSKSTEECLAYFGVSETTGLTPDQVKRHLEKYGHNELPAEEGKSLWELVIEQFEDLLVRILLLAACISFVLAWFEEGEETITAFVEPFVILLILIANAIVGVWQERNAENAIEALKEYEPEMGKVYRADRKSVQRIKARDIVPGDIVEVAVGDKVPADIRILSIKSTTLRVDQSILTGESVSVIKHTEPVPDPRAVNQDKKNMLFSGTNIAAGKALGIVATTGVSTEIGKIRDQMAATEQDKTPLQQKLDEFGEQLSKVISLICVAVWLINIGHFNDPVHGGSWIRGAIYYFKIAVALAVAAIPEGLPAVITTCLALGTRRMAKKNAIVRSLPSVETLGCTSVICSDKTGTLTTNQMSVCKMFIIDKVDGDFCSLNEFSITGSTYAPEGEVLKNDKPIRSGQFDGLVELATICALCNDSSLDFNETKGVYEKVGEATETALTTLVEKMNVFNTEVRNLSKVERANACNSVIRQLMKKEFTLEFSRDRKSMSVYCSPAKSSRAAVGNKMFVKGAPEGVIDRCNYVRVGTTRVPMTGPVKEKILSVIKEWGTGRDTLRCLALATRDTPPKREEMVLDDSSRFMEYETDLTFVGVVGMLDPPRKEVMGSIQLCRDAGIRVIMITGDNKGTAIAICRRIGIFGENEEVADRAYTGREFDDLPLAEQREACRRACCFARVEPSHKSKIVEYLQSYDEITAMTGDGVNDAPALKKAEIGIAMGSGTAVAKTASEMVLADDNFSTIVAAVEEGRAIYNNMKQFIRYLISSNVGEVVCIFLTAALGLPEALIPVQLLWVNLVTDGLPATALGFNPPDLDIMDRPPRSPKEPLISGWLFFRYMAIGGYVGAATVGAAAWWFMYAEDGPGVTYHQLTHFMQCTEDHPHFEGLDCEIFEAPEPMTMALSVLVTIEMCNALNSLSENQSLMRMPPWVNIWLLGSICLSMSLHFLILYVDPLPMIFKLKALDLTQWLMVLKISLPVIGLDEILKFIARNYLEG
T1 sequence (P28877 whole entry): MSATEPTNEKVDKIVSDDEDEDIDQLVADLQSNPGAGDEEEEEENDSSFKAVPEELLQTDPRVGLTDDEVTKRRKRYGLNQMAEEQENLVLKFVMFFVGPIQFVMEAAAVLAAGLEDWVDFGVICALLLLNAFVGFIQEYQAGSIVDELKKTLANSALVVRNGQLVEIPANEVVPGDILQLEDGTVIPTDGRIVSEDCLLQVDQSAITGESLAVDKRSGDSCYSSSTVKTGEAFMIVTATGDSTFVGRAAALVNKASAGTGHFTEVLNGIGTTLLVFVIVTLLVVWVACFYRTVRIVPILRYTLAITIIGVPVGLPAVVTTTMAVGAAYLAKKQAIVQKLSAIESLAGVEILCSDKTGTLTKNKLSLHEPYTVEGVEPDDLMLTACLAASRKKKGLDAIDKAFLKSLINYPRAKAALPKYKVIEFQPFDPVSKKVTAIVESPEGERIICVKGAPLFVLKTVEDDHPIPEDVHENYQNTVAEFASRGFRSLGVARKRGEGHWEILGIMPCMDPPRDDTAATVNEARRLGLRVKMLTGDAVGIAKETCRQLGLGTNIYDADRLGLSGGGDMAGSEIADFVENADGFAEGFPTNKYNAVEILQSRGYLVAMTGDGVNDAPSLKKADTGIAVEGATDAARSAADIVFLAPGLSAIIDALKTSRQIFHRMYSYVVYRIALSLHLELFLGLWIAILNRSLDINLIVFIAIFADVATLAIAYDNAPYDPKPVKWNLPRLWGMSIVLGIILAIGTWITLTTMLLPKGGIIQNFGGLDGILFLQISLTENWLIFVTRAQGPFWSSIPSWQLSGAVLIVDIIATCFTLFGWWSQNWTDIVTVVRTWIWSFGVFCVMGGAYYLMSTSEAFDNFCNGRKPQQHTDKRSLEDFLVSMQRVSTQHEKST

Compound | IC50 [1, 7] [µM] | Compound precipitation observed in the growth medium at concentrations down to [3] | EC50 [2, 10] [µM] | other results
N=C(N)NCCC[C@@H](N)C(=O)N[C@H](CCCNC(=N)N)C(=O)N[C@H](CCCNC(=N)N)C(=O)N[C@H](Cc1ccccc1)C(=O)N[C@H](Cc1c[nH]c2ccccc12)C(=O)N[C@H](Cc1c[nH]c2ccccc12)C(=O)N[C@H](Cc1ccccc1)C(=O)N[C@H](CCCNC(=N)N)C(=O)N[C@H](CCCNC(=N)N)C(=O)N[C@H](CCCNC(=N)N)C(N)=O [BM2, reference compound] (HELM PEPTIDE1{[dR].[dR].[dR].[dF].[dW].[dW].[dF].[dR].[dR].[dR].[am]}$$$$V2.0) | 0.9 ± 0.2 | – | – | IC50 [1, 8]: 0.9 µM; Effect on mammalian Hep-G2 cells [2]: no effect; EC50 ([2]; 24 h): > 100 µM
O=C1/C(=C/c2ccc(-c3cc(Cl)ccc3Cl)o2)C=C(c2ccccc2)N1c1ccccc1O [Compound 1] | – | c Compound precipitation was observed in the growth medium at concentrations down to 15 μM. | – | –
COc1ccc(-c2cc(C(=O)Nc3ccc(C(C)C)cc3)c3ccccc3n2)c(OC)c1 [Compound 3] | – | e Compound precipitation was observed in the growth medium at concentrations down to 150 μM. | – | –
CC1CCCCN1CC(O)Cn1c(-c2ccccc2)c(-c2ccccc2)c2ccc3ccccc3c21 (stereo not drawn) [Compound 4] | – | d Compound precipitation was observed in the growth medium at concentrations down to 48 μM. | – | –
CCOc1ccc2nc3cc(NC(=O)c4cccc(Br)c4)ccc3c(N)c2c1 [Compound 5] | – | f Compound precipitation was observed in the growth medium at concentrations down to 75 μM. | – | –
Cc1c(-c2ccccc2)[o+]c2ccccc2c1C#Cc1ccccc1 [Compound 6] | – | d Compound precipitation was observed in the growth medium at concentrations down to 48 μM. | – | IC50 [4, 9]: 3.4 ± 0.6 µM
Oc1cccc(Nc2nc(-c3ccc(Cl)c(Cl)c3)cs2)c1 [Compound 7] | – | d Compound precipitation was observed in the growth medium at concentrations down to 48 μM. | – | IC50 [4, 9]: 3.8 ± 0.6 µM
COc1ccc(-c2cc(C(=O)Nc3ccc4c(c3)OCCO4)c3ccccc3n2)c(OC)c1 [Compound 8] | – | d Compound precipitation was observed in the growth medium at concentrations down to 48 μM. | – | –
COc1cccc(Nc2nc(Cl)nc(Nc3cccc(OC)c3)n2)c1 [Compound 9] | – | d Compound precipitation was observed in the growth medium at concentrations down to 48 μM. | – | –
CCCCOc1ccc(C2C(C#N)=C(N)Oc3cc(O)ccc32)cc1 (stereo not drawn) [Compound 11] | – | d Compound precipitation was observed in the growth medium at concentrations down to 48 μM. | – | –
COc1ccc(Cn2c(SCc3cc(C)ccc3C)nc3cc(OC)c(OC)cc3c2=N)cc1 [Compound 12] | – | e Compound precipitation was observed in the growth medium at concentrations down to 150 μM. | – | IC50 ([4]; ATP hydrolysis at pH 7): > 105 µM
CCCCc1nc2sc3c(NCCCN(C)C)ncnc3c2c2c1CCCC2 [Compound 14] | 17 ± 0.9 | – | 2.3 | IC50 [1, 8]: 17 µM; iATP levels in the presence of oligomycin, S. cerevisiae ([5]; 30 min, oligomycin A at 40 μM): comparable to those for control cells; Increase in iATP levels compared to untreated control, S. cerevisiae ([5]; 30 min of treatment, species of the BM2 value not given): 200%; Increase in iATP levels compared to untreated control, C. albicans ([6]; 30 min of treatment): 1,500%; EC50 [6]: 13 µM; Maximum iATP level (per well), C. albicans [6]: about 500 nM
CCCCc1nc2sc3c(NCCCN(C)C)nc(SC)nc3c2c2c1CCC2 [Compound 15] | 6.3 ± 0.5 | – | 2.8 ± 0.1 | –
CN(C)CCCNc1ncnc2c1sc1nc(N3CCCCC3)c3c(c12)CCCC3 [Compound 16] | 9.5 ± 1 | – | 2.6 ± 0.9 | –
CCc1nc2sc3c(NCCCN(C)C)ncnc3c2c2c1CCCC2 [Compound 17] | 151 ± 6.2 | – | 5.8 ± 1.1 | Effects on iATP levels, in words [5]: minimal effects
CN(C)CCCNc1ncnc2c1sc1nc(-c3ccccc3)c3c(c12)CCC3 [Compound 18] | 22.9 ± 2 | – | 3.6 ± 1.1 | –
CCN(CC)CCCNc1nc(SC)nc2c1sc1nc(-c3ccccc3)c3c(c12)CCC3 [Compound 19] | 8.7 ± 0.5 | – | 24.2 ± 0.5 | IC50 [1, 8]: 9 µM; Toxicity window between C. albicans and Hep-G2 cells ([2]; human, 24 h): 3 fold; EC50 [6]: 7 µM; Maximum iATP level (per well), C. albicans [6]: about 500 nM
O=c1c2ccccc2[se]n1-c1ccccc1 [Ebselen, reference compound] | – | – | 10.7 ± 7 | IC50 ([1]; IC50 for ATP hydrolysis, C. albicans Pma1, Table 2, pH 7, n = 2): 0.51 ± 0.04 µM
[O]=[V]([O-])([O-])[O-] [Vanadate, reference compound] | 0.23 ± 0.05 | – | – | EC50 ([2]; 24 h, medium with 10% fetal bovine serum, XTT readout, read-out: EC50 for Hep-G2 cells at 24 h): > 500 µM; Effects on iATP levels, in words [5]: minimal effects
